Reference: patent US7615356B2, “Ion channel assay methods” (Vertex Pharmaceuticals (San Diego) LLC, priority 2000, dated 2009)
“Also recorded” adds a separate entry of the source. Where two headings read alike, the source gives them in different places.

What was measured:
[1] = biological target: endogenous NaV channels of Chinese Hamster Ovary cells (Nav 1.2a) (Cricetulus griseus, UniProt A0A8C2MK62); assay: Use-dependent block, repetitive electrical stimulation at 1 Hz, CHO cells; assay type: cell-based
Nav1.8 [2] = biological target: Nav1.8 (UniProt Q9Y5Y9); assay: Induced spontaneous firing of Nav1.8 expressing cells, high-frequency monophasic pulses; assay type: cell-based
[3] = tested on: TTX-resistant Nav channels; settings: cited from earlier work
[4] = tested on: sodium channels in dorsal root ganglion (DRG) neurons; assay: Dorsal root ganglion neuron assay, electrical stimulation at different external potassium; assay type: cell-based, rat; settings: before and after addition of 16 mM potassium
Method: We have developed a dorsal root ganglion (DRG) neuron assay on the electrical stimulation with optical detection platform that allows us to detect and quantify voltage dependent blockers of the sodium channels in these neurons. The DRG neurons were dissociated from neonatal rat pups and stained with FRET voltage sensing dyes. The neurons were then placed in the middle of the well on a 96 well plate and preincubated with varying concentrations of the test compound. Electrical stimulation was applied and the resulting response recorded by the plate reader. Dose response plots were then constructed for each compound tested. Increased levels of potassium were then added to depolarize the neurons and move more of the sodium channels into the inactivated state. […] This estimates the degree of voltage or state dependence for these compounds. […] As shown, the high potassium levels depolarize the cells. The compounds' block is voltage dependent, a type of use-dependent activity. […] This example illustrates also the use of this method with primary neurons.

Nav1.8 [5] = biological target: Nav1.8 (UniProt Q9Y5Y9); assay: Paired-pulse train stimulation, recovery from block, cells expressing Nav1.8; settings: for IC50: approximate, from previous experiment
NaV4 sodium channel = assay type: cell-based; settings: HEK-293 NaV4; 33 V/cm, 10 ms/phase biphasic, 15 Hz burst for 1.5 seconds; read-out: estimated EC50 (Hill function fit)
Source text: For this experiment, electrical stimulation parameters were E=33 V/cm, 10 ms/phase biphasic stimulation, 15 Hz burst for 1.5 seconds.
To determine whether the present method is generally applicable to a wide range of different sodium channels, HEK-293 cells were stably transfected with another voltage dependent sodium channel, hereinafter referred to as NaV4. These cells were transfected, selected and loaded with FRET dyes as described in section VI and Example 8.

Nav 1.2a = Nav 1.2a (Rattus norvegicus, UniProt P04775, N209D); settings: published; cited from earlier work
[6] = tested on: voltage-activated chloride and potassium channels of wild-type HEK-293 cells
HL5 cardiac muscle cells = assay type: cell-based
[7] = biological target: voltage dependent sodium channel (NaV1) endogenously expressed in wild type CHO cells (Cricetulus griseus, UniProt A0A8C2MK62)
[8] = biological target: potassium inward rectifier channel IRK1 (Rattus norvegicus, UniProt Q64273)
N-type calcium channel = N-type calcium channel (Homo sapiens, UniProt Q00975); assay: Hexyl oxonol assay for use-dependent blockers of CaV; assay type: cell-based; settings: 5 μM
Method: Assays can also be developed using fast membrane potential sensors, such as DISBAC6(3) and CC2-DMPE voltage-sensitive FRET probes, to detect use-dependent compounds for voltage-gated Ca targets. The following illustrative example is for an N-type calcium channel using hardware compatible with 96 well plates.
Prepare a solution of 2× CC2DMPE and DISBAC6(3) by Vortexing together 10 mM CC2DMPE (in DMSO) and 10 mM DISBAC6(3) (in DMSO) with an equivalent volume of 10% pluronic (in DMSO). Vortex in required amount of bath. Each cell plate will require 5 ml of this solution. Wash plate with a plate washer leaving a residual volume of 50 μl. Add 50 μL of 2× CC2DMPE to wells. Resulting concentrations of dyes will be 4 μM CC2-DMPE and 1.25 μM DISBAC6(3). Stain for 30 minutes in the dark at RT. The test compounds are prepared at 2× concentration in extracellular ringer solution and added to wells containing stained cells. Stimulation parameters such as stimulation frequency, pulse duration, stimulation voltage can be easily manipulated to elicit desired responses.
FIG. 40 illustrates an example of how a use-dependent compound such as mibefradil can be detected using this hexyl assay.

[9] = 1 Hz stimulation, 1st peak response
[10] = 1 Hz stimulation, 20th peak response
[11] = read-out: IC50 @ 1st peak, 1 Hz stimulation, 1st peak response
[12] = read-out: IC50 @ 20th peak, 1 Hz stimulation, 20th peak response

voltage dependent sodium channel (NaV1) endogenously expressed in wild type CHO cells, sequence (A0A8C2MK62 1-2006): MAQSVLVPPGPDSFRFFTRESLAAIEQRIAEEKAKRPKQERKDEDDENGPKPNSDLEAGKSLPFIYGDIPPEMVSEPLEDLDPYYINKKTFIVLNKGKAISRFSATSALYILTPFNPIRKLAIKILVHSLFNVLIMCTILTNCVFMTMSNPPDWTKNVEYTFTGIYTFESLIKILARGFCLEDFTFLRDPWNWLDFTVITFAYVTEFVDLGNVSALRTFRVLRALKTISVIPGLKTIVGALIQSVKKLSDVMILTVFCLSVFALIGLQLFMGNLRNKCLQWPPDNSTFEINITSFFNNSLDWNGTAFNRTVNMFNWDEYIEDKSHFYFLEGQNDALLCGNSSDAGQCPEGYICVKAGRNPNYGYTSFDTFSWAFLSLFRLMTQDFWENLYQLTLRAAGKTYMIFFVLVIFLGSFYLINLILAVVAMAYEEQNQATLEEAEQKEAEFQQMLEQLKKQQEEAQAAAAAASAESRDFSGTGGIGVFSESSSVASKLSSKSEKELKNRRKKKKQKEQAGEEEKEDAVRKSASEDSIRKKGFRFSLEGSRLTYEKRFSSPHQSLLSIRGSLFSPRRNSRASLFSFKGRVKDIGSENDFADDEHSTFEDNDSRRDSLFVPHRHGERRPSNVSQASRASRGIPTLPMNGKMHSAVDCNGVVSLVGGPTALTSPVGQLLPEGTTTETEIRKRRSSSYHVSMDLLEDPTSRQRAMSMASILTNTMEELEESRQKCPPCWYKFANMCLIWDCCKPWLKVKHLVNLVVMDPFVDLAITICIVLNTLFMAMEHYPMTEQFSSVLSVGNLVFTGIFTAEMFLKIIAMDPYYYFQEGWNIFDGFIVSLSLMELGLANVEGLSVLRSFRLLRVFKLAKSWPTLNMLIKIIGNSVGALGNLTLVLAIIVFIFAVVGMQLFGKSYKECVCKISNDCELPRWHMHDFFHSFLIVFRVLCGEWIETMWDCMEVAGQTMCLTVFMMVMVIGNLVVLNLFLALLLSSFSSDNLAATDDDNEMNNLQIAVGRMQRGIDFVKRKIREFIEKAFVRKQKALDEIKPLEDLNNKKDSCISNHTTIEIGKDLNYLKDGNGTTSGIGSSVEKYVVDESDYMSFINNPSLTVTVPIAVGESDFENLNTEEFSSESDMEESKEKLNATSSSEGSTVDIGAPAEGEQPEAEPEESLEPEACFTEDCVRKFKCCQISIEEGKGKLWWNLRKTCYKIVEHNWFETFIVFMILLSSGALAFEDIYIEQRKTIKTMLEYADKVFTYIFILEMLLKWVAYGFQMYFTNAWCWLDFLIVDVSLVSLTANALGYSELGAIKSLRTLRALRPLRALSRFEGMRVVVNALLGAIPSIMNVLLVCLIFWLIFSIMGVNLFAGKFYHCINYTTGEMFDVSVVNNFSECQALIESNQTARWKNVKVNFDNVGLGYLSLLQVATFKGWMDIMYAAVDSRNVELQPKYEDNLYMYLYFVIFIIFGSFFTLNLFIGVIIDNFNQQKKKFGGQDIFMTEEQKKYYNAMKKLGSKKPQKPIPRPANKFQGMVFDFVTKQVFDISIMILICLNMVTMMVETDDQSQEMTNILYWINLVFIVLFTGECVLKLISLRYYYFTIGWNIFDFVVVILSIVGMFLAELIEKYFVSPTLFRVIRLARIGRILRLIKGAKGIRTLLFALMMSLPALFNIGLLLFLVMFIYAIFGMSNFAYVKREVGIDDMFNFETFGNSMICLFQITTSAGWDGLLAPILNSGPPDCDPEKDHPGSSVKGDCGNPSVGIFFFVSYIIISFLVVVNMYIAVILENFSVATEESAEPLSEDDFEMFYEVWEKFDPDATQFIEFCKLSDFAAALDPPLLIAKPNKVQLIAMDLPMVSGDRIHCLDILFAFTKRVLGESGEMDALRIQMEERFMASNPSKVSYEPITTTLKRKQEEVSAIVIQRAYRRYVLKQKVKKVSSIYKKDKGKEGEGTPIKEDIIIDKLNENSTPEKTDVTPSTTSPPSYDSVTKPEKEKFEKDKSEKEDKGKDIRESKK
endogenous NaV channels of Chinese Hamster Ovary cells (Nav 1.2a), sequence (A0A8C2MK62 entry or part of it): as the sequence (A0A8C2MK62 1-2006) above
Nav 1.2a, sequence (P04775 whole entry N209D): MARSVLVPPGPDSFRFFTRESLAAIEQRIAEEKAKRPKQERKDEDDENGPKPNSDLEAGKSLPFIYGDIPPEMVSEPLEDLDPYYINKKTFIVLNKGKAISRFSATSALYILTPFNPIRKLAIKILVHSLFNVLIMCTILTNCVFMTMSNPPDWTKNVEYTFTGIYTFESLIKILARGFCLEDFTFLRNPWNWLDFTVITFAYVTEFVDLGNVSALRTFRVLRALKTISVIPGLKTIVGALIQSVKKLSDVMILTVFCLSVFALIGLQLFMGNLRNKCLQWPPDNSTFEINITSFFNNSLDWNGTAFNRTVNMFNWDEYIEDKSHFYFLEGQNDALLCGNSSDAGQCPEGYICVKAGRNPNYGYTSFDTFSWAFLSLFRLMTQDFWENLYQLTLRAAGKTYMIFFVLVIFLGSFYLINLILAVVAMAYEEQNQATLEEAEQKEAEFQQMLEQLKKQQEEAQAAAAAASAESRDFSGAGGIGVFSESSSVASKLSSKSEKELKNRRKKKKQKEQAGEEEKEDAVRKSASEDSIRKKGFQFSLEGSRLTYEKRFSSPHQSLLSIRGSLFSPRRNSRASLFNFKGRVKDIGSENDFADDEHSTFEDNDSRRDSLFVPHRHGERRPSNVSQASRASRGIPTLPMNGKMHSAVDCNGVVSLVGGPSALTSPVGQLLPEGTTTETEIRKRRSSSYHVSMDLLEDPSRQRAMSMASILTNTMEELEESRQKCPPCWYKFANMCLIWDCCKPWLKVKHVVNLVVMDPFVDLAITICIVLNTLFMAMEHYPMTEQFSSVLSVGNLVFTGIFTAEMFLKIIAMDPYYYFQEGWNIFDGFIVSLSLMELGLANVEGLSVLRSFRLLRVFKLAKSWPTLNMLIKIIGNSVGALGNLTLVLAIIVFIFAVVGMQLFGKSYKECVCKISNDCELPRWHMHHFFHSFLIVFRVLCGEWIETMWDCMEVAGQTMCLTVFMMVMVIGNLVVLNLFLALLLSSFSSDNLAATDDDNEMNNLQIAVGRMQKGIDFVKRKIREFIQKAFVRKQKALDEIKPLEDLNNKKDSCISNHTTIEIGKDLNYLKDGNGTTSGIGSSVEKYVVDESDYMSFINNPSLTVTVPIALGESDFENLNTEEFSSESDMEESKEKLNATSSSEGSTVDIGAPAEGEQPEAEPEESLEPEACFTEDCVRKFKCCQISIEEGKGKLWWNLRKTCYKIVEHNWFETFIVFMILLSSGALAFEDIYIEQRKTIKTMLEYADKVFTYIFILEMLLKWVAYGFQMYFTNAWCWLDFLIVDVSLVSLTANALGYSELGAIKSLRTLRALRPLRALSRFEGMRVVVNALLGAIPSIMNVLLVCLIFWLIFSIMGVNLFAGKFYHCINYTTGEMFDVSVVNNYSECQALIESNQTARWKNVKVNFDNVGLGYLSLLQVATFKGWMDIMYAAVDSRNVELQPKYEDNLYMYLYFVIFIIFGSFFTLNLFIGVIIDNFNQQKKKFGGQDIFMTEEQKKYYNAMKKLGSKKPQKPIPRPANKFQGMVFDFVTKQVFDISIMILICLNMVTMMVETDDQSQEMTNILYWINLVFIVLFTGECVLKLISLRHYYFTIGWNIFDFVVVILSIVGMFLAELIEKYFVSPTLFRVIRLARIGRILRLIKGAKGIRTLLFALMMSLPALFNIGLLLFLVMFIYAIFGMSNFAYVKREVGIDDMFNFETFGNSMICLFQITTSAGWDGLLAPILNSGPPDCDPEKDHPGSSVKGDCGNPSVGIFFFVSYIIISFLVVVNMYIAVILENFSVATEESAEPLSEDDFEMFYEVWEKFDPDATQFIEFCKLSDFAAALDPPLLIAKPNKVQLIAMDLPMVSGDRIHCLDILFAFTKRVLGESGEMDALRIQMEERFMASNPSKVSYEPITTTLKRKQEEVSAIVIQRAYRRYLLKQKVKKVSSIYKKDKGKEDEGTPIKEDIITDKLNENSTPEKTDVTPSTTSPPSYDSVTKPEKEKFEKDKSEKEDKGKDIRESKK
potassium inward rectifier channel IRK1, sequence (Q64273 whole entry): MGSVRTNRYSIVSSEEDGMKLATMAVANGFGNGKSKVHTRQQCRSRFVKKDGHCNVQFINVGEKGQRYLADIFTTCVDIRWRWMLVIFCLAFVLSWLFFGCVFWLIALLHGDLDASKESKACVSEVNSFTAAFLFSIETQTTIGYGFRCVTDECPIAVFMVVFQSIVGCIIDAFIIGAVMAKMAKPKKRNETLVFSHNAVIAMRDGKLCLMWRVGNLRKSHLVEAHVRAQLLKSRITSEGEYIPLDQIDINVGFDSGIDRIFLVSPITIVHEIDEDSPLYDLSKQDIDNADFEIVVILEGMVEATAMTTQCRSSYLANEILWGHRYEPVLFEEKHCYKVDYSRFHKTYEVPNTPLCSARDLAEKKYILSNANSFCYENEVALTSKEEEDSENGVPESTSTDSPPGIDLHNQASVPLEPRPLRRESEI

Structure (SMILES): CCN(CC)CC(=O)Nc1c(C)cccc1C [Lidocaine]
- use-dependent block of endogenous NaV channels [1]: only minor or no use-dependent block
- effect on induced spontaneous firing (Nav1.8 [2]): gradually increased the interspike interval
- firing rate in neuron slice preparation [3]: slower firing rate

Structure (SMILES): Nc1nnc(-c2cccc(Cl)c2Cl)c(N)n1 [lamotrigine]
- effect on induced spontaneous firing (Nav1.8 [2]): gradually increased the interspike interval
- shift of dose response curve after elevated potassium [4]: leftward shifted
- IC50 (Nav1.8 [5]): ~50 µM

Structure (SMILES): CCCCNc1ccc(C(=O)OCCN(C)C)cc1 [tetracaine]
- EC50 (NaV4 sodium channel): 35 µM
- UDI (1 Hz), ratio of IC50(1st response) over IC50(20th response) ([1]; 1 Hz for 20 seconds): 8.40
- use-dependent block of endogenous NaV channels ([1]; 1 Hz for 20 seconds, in words): decreased ratio of last peak response over first peak response and more additional block than TTX and most
- Hill coeff. @ 1st peak [1, 9]: 1.81
- Hill coeff. @ 20th peak [1, 10]: 0.66
- IC50 [1, 11]: 2.77 ± 1.23 µM
- IC50 [1, 12]: 0.33 ± 0.2 µM
- shift of dose response curve after elevated potassium [4]: leftward shifted
- EC50 (NaV3 sodium channel; read-out: EC50 (fit to dose-response curve), HEK-293 NaV3, 33 V/cm, 10 ms/phase biphasic, 15 Hz burst for 1.5 seconds): 11 µM
- time to recover from use-dependent block (Nav1.8 [5]; 4 μM): approximately 1000 ms
- IC50 (Nav1.8 [5]): ~4 µM

Structure (SMILES): Cc1cccc(C)c1OCC(C)N (centres unmarked) [mexiletine]
- Hill coeff. @ 1st peak [1]: 3.07
- Hill coeff. @ 20th peak [1]: 0.98
- UDI (1 Hz), ratio of IC50(1st response) over IC50(20th response) [1]: 2.59
- IC50 ([1]; read-out: IC50 @ 1st peak): 58.1 ± 11 µM
- IC50 ([1]; read-out: IC50 @ 20th peak): 22.5 ± 5.31 µM
- IC50 (Nav 1.2a): 21 to 533 µM

Structure (SMILES): CN(C)CCC=C1c2ccccc2CCc2ccccc21 [amitriptyline]
- Hill coeff. @ 1st peak [1]: 2.65
- Hill coeff. @ 20th peak [1]: 1.07
- UDI (1 Hz), ratio of IC50(1st response) over IC50(20th response) [1]: 3.24
- IC50 ([1]; read-out: IC50 @ 1st peak): 5.19 ± 1.57 µM
- IC50 ([1]; read-out: IC50 @ 20th peak): 1.6 ± 0.38 µM
- IC50 (Nav 1.2a): 5.5 µM

Structure (SMILES): CCCCOc1cc(C(=O)NCCN(CC)CC)c2ccccc2n1 [dibucaine]
- UDI (1 Hz), ratio of IC50(1st response) over IC50(20th response) ([1]; 1 Hz for 20 seconds): 2.36
- Hill coeff. @ 1st peak [1, 9]: 2.35
- Hill coeff. @ 20th peak [1, 10]: 1.19
- IC50 [1, 11]: 1.19 ± 0.22 µM
- IC50 [1, 12]: 0.51 ± 0.11 µM

Structure (SMILES): CC[N+](CC)(CC)CC [TEA, Tetraethylammonium]
- effect on the negative voltage response [6]: partially blocks

Structure (SMILES): NC1=N[C@H](O)[C@H]2[C@H]3O[C@]4(O)O[C@@H]([C@@H](O)[C@@]2(N1)[C@@H]4O)[C@]3(O)CO [TTX, tetrodotoxin]
- use-dependent block of endogenous NaV channels [1]: only minor or no use-dependent block; also recorded: least use-dependent
- effect on the positive response (HL5 cardiac muscle cells): partially blocks
- sustained signal above 50 V/cm (HL5 cardiac muscle cells): unaffected
- Hill coefficient [7]: 1.47
- block of the effect of electrical stimulation [7]: completely block
- EC50 ([7]; read-out: EC50 (Hill function fit to dose response)): 0.009 µM
- EC50 (NaV3 sodium channel; read-out: EC50 (Hill function fit)): 0.025 µM

Structure (SMILES): CCCCN1CCCCC1C(=O)Nc1c(C)cccc1C (centres unmarked) [Bupivacaine]
- firing rate in neuron slice preparation [3]: slower firing rate

Structure (SMILES): [Ba+2].[Cl-].[Cl-] [barium chloride]
- voltage change during stimulation with block [8]: no detectable voltage change

Structure (SMILES): COCC(=O)O[C@]1(CCN(C)CCCc2nc3ccccc3[nH]2)CCc2cc(F)ccc2[C@@H]1C(C)C [mibefradil]
- change in response lineshape (N-type calcium channel): use-dependent block

Structure (SMILES): COC(=O)[C@@H]1[C@H]2C[C@H]3c4[nH]c5ccccc5c4CCN3C[C@@H]2CC[C@@H]1O [yohimbine]
- UDI (1 Hz), ratio of IC50(1st response) over IC50(20th response) ([1]; 1 Hz for 20 seconds): 5.67
- Hill coeff. @ 1st peak [1, 9]: 2.05
- IC50 ([1]; 1 Hz stimulation, 1st peak response, read-out: IC50 @ 1st peak): 26.7 ± 7.26 µM
- Hill coeff. @ 20th peak [1, 10]: 0.99
- IC50 ([1]; 1 Hz stimulation, 20th peak response, read-out: IC50 @ 20th peak): 4.7 ± 1.94 µM
